23 molecules from ChEMBL document CHEMBL1128761, “Benzothiazolylthio carbapenems: potent anti-MRSA agents” (Bioorg Med Chem Lett, 1995) can be followed below.

SMILES strings stand for the structures. In brackets after ≈: the same amount, converted by molar mass.

As usually defined, the IC50 is the concentration needed to halve the response being measured. A higher IC50 goes with a need for much substance. For orientation: MIC means the lowest concentration that inhibits growth of the organism.

Assay [1] deals with T1, MecA (Staphylococcus aureus, UniProt Q7DHH4).
T1 sequence (Q7DHH4 whole entry): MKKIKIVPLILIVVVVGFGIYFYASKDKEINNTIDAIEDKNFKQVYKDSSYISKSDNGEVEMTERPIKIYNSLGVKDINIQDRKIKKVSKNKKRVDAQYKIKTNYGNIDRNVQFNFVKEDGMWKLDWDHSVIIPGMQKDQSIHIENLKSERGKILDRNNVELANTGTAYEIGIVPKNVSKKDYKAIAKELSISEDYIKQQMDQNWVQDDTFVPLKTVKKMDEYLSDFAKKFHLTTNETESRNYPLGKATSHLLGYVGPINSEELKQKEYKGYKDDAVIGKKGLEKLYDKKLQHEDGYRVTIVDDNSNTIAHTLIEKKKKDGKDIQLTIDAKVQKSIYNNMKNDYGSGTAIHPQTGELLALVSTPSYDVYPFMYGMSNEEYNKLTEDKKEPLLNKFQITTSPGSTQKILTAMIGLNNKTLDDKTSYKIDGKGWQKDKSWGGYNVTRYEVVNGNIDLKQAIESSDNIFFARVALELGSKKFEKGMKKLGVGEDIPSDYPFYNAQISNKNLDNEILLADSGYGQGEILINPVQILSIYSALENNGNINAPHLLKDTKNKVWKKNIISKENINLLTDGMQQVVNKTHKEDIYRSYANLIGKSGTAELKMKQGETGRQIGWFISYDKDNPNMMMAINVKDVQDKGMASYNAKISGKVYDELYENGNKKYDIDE
The assay is described as follows: Binding affinity towards Penicillin-binding protein 2a from homogeneous MRSA COL strain using [3H]-radioligand.

The subject of assay [2] is Enterococcus. The assay is described as follows: Inhibitory activity against enterococcus evaluated by computational method. The assay is classed as functional.
The subject of assay [3] is Staphylococcus aureus. Put plainly: Inhibitory activity against methicillin-sensitive staphylococcus aureus(MSSA). The format is functional.
Assay [4] deals with T2, Dipeptidase 1 (Sus scrofa) (UniProt P22412).
T2 sequence (whole entry): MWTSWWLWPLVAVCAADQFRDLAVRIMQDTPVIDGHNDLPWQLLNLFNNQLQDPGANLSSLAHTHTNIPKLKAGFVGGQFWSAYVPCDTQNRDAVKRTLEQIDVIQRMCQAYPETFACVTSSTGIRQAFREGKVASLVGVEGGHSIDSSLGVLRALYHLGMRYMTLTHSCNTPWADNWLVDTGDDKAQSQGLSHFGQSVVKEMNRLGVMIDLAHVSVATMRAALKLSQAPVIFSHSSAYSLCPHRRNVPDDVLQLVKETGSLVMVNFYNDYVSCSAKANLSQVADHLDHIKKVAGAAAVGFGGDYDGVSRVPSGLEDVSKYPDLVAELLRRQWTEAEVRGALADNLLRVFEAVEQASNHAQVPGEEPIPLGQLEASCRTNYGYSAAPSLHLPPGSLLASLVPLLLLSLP
The assay is described as follows: (§1) Susceptibility to DHP-I (swine kidney enzyme). The format is tissue-based.

The subject of assay [5] is Bacteria. The assay is described as follows: The gram-negative activity is derived from eleven strains selected from seven enteric genera. The assay is classed as functional. Conditions: Bacteria; read-out: MIC.
Assay [6] has as its system Staphylococcus aureus. Put plainly: Inhibitory activity against methicillin-resistant staphylococcus aureus(MRSA). The assay is classed as functional.
The species named for assay [7] is Sus scrofa. The description is as §1. The format is tissue-based.

In assay [1], `C[C@@H](O)[C@H]1C(=O)N2C(C(=O)[O-])=C(Sc3ncc4ccccc4n3)[C@H](C)[C@H]12.[Na+]` gave an IC50 of 30.2 µM. Further, the minimal inhibitory concentration (MIC) in assay [2] amounted to 8 µg/mL; in assay [3] it was 0.02 µg/mL; in assay [5], 15 µg/mL; in assay [6] it was 4 µg/mL. In assay [4], this molecule had a Susceptibility of 0.3.

Take `C[C@@H](O)[C@H]1C(=O)N2C(C(=O)[O-])=C(Sc3nc4ccc(N)cc4s3)[C@H](C)[C@H]12.[Na+]`: the IC50 in assay [1] is 40.6 µM. Also, the minimum inhibitory concentration (MIC) is 5.9 µg/mL in assay [2], 0.09 µg/mL in assay [3], 18.3 µg/mL in assay [5] and 9 µg/mL in assay [6].

For the molecule `C[C@@H](O)[C@H]1C(=O)N2C(C(=O)[O-])=C(Sc3nc4cc(CO)ccc4s3)[C@H](C)[C@H]12.[Na+]`, the half-inhibitory concentration (IC50) in assay [1] was 2.8 µM. Also, the minimal inhibitory concentration (MIC) was 3.8 µg/mL in assay [2], 0.07 µg/mL in assay [3], 8 µg/mL in assay [5] and 1 µg/mL in assay [6]. This molecule also returned a Susceptibility in assay [4] of 0.3.

Regarding `C[C@@H](O)[C@H]1C(=O)N2C(C(=O)[O-])=C(Sc3nc4c(C[n+]5ccn(C)c5)csc4s3)C[C@H]12`, the IC50 in assay [1] is 0.649 µM. For the same molecule, the MIC was found to be 2 µg/mL (≈ 4.32 µM) in assay [2], 0.02 µg/mL (≈ 0.0432 µM) in assay [3], 5.5 µg/mL (≈ 11.9 µM) in assay [5] and 1 µg/mL (≈ 2.16 µM) in assay [6]. The same molecule showed a Susceptibility in assay [7] of 0.2.

`COC(=O)c1csc2sc(SC3=C(C(=O)[O-])N4C(=O)[C@H]([C@@H](C)O)[C@H]4[C@H]3C)nc12.[Na+]` showed an IC50 in assay [1] of 2.59 µM. The MIC in assay [2] was 4 µg/mL; in assay [3] it was 0.04 µg/mL; in assay [5] it was 21.9 µg/mL; in assay [6], 2 µg/mL. For the same molecule, the Susceptibility in assay [4] was determined as 0.3.

In assay [1], `C[C@@H](O)[C@H]1C(=O)N2C(C(=O)[O-])=C(Sc3nc4ccc([N+](=O)[O-])cc4s3)[C@H](C)[C@H]12.[Na+]` showed an IC50 of 1.35 µM. In addition, the minimum inhibitory concentration (MIC) in assay [2] came out at 4.9 µg/mL; in assay [3] it was 0.05 µg/mL; in assay [5] it was 22.4 µg/mL; in assay [6], 1.1 µg/mL. In assay [4], this molecule came in with a Susceptibility of 0.2.

`C[C@@H](O)[C@H]1C(=O)N2C(C(=O)O)=C(SCCN=CN)C[C@H]12` [IMIPENEM ANHYDROUS] had an IC50 in assay [1] of 428 µM.

As for `C[C@@H](O)[C@H]1C(=O)N2C(C(=O)[O-])=C(Sc3nc(-c4ccccc4)cs3)C[C@H]12.[Na+]`, the MIC was 2.1 µg/mL in assay [2], 0.03 µg/mL in assay [3], 14 µg/mL in assay [5] and 11.3 µg/mL in assay [6]. In addition, in assay [4], the Susceptibility was 3.6.

The molecule `C[C@@H](O)[C@H]1C(=O)N2C(C(=O)[O-])=C(Sc3nc4cc(Cl)ccc4s3)[C@H](C)[C@H]12.[Na+]` showed an IC50 in assay [1] of 6.24 µM. Further, the MIC in assay [2] came out at 2.7 µg/mL; in assay [3], 0.02 µg/mL; in assay [5], 4.8 µg/mL; in assay [6], 0.8 µg/mL. Besides, the Susceptibility in assay [4] turned out to be 0.2.

Turning to `CCOc1ccc2nc(SC3=C(C(=O)[O-])N4C(=O)[C@H]([C@@H](C)O)[C@H]4[C@H]3C)sc2c1.[Na+]`, the half-maximal inhibitory concentration (IC50) in assay [1] is 10.6 µM. In addition, the minimum inhibitory concentration (MIC) was 6 µg/mL in assay [2], 0.1 µg/mL in assay [3], 31.6 µg/mL in assay [5] and 4 µg/mL in assay [6]. The molecule also returned a Susceptibility in assay [4] of 0.3.

`C[C@@H](O)[C@H]1C(=O)N2C(C(=O)[O-])=C(Sc3nc(-c4ccccc4)cs3)[C@H](C)[C@H]12.[Na+]` showed an IC50 in assay [1] of 23.8 µM. Moreover, the MIC in assay [2] worked out at 2.6 µg/mL; in assay [3], 0.05 µg/mL; in assay [5], 6.6 µg/mL; in assay [6] it was 1.9 µg/mL. Further, the Susceptibility in assay [4] worked out at 0.4.

As for `C[C@@H](O)[C@H]1C(=O)N2C(C(=O)[O-])=C(Sc3nc4ccc(Cl)cc4s3)[C@H](C)[C@H]12.[Na+]`, the IC50 in assay [1] was 2.08 µM. Further, the MIC in assay [2] is 4 µg/mL; in assay [3], 0.1 µg/mL; in assay [5] it was 17.6 µg/mL; in assay [6], 2.3 µg/mL.

`C[C@@H](O)[C@H]1C(=O)N2C(C(=O)[O-])=C(Sc3nc4ccccc4s3)C[C@H]12.[Na+]` had an IC50 in assay [1] of 8.06 µM. For the same molecule, the minimum inhibitory concentration (MIC) in assay [2] is 1.7 µg/mL; in assay [3] it was 0.07 µg/mL; in assay [5] it was 3.7 µg/mL; in assay [6], 1.9 µg/mL. Further, the Susceptibility in assay [4] is 1.7.

Regarding `C[C@@H](O)[C@H]1C(=O)N2C(C(=O)[O-])=C(Sc3cc4ccccc4s3)[C@H](C)[C@H]12.[Na+]`, the concentration for half-maximal inhibition (IC50) in assay [1] is 41.5 µM. In addition, the MIC in assay [2] stood at 5.7 µg/mL; in assay [3], 0.04 µg/mL; in assay [5] it was 9.8 µg/mL; in assay [6] it was 3.9 µg/mL. In assay [4], this molecule returned a Susceptibility of 0.4.

Molecule `COC(=O)c1cc2sc(SC3=C(C(=O)[O-])N4C(=O)[C@H]([C@@H](C)O)[C@H]4[C@H]3C)nc2o1.[Na+]` had an IC50 in assay [1] of 3.36 µM. Besides, the MIC in assay [2] was 4 µg/mL; in assay [3] it was 0.02 µg/mL; in assay [5] it was 12.4 µg/mL; in assay [6], 4 µg/mL.

Turning to `C[C@@H](O)[C@H]1C(=O)N2C(C(=O)[O-])=C(Sc3nccs3)[C@H](C)[C@H]12.[Na+]`, the IC50 in assay [1] was 33.6 µM. Further, the MIC was found to be 7.1 µg/mL in assay [2], 0.17 µg/mL in assay [3], 2.5 µg/mL in assay [5] and 18.2 µg/mL in assay [6]. In assay [4], this molecule registered a Susceptibility of 0.4.

Turning to `C[C@@H](O)[C@H]1C(=O)N2C(C(=O)[O-])=C(Sc3nc4ccccc4o3)[C@H](C)[C@H]12.[Na+]`, in assay [1], the IC50 was 112 µM. Also, the MIC in assay [2] worked out at 8.9 µg/mL; in assay [3], 0.23 µg/mL; in assay [5] it was 27.8 µg/mL; in assay [6], 12.1 µg/mL.

Consider `C[C@@H](O)[C@H]1C(=O)N2C(C(=O)[O-])=C(Sc3ccc4ccccc4n3)[C@H](C)[C@H]12.[Na+]`, for which the IC50 in assay [1] is 71.4 µM. For the same molecule, the MIC stood at 4.9 µg/mL in assay [2], 0.05 µg/mL in assay [3], 10.1 µg/mL in assay [5] and 6.3 µg/mL in assay [6].

Consider `C[C@@H](O)[C@H]1C(=O)N2C(C(=O)[O-])=C(Sc3nc4ccc(C#N)cc4s3)[C@H](C)[C@H]12.[Na+]`, for which, in assay [1], the IC50 was 3.78 µM. The minimum inhibitory concentration (MIC) in assay [2] was found to be 4.5 µg/mL; in assay [3] it was 0.04 µg/mL; in assay [5] it was 8.8 µg/mL; in assay [6], 0.9 µg/mL. The Susceptibility in assay [4] turned out to be 0.1.

For the molecule `C[C@@H](O)[C@H]1C(=O)N2C(C(=O)[O-])=C(Sc3nc4cc(C(F)(F)F)ccc4s3)[C@H](C)[C@H]12.[Na+]`, the IC50 in assay [1] is 1.93 µM. The MIC was 2.9 µg/mL in assay [2], 0.08 µg/mL in assay [3], 9.9 µg/mL in assay [5] and 1.2 µg/mL in assay [6].

Take `C[C@@H](O)[C@H]1C(=O)N2C(C(=O)[O-])=C(Sc3ncc(-c4ccccc4)s3)[C@H](C)[C@H]12.[Na+]`: the IC50 in assay [1] was 236 µM. The MIC came to 8 µg/mL in assay [2], 0.03 µg/mL in assay [3], 16 µg/mL in assay [5] and 32 µg/mL in assay [6]. Further, the Susceptibility in assay [4] is 0.5.

`C[C@@H](O)[C@H]1C(=O)N2C(C(=O)[O-])=C(Sc3nc4cc(Cl)ccc4s3)C[C@H]12.[Na+]` had an IC50 in assay [1] of 3.82 µM. Moreover, the minimum inhibitory concentration (MIC) in assay [2] stood at 0.7 µg/mL; in assay [3], 0.02 µg/mL; in assay [5], 3.8 µg/mL; in assay [6], 1.8 µg/mL. In assay [4], this molecule registered a Susceptibility of 1.2.

As to `C[C@@H](O)[C@H]1C(=O)N2C(C(=O)[O-])=C(Sc3nc4c(CO)csc4s3)[C@H](C)[C@H]12.[Na+]`, in assay [1], the IC50 was 2.76 µM. Further, the MIC in assay [2] came to 4 µg/mL; in assay [3], 0.02 µg/mL; in assay [5], 9.7 µg/mL; in assay [6] it was 2 µg/mL. The same molecule returned a Susceptibility in assay [4] of 0.5.
